Data reported in patent publication US20110129467A1, “THERAPEUTIC COMBINATION COMPRISING AN AURORA KINASE INHIBITOR AND ANTIPROLIFERATIVE AGENTS” (NERVIANO MEDICAL SCIENCES S.R.L., priority 2008, published 2011).
Read-outs that look alike come from different tables or passages of the source.

Legend:
[1] = test system: HL-60 human acute myeloid leukaemia cells; settings: HL-60 sc in SCID mice; for T-C: delay vs control to reach 1 g
Protocol: The treatment started 12 days later tumor cells injection when tumors were palpable.
When combined, Compound 1 was administered in the interval between the bortezomib treatments at days 13, 14, 15, 17, 18, 19, 21, 22, 23, 25, 26 and 27. […] Tumor growth was assessed by caliper.

[2] = test system: DU145 prostate carcinoma cells; test: In vivo antitumor efficacy, DU145 prostate carcinoma subcutaneous xenograft in athymic mice; settings: Compound 1 15 mg/kg ip BID, Bevacizumab 20 mg/kg ip days 9, 13, 17; for Time to reach 1 g / T-C: DU145 sc in athymic mice; for T-C: delay vs control to reach 1 g
Protocol: Balb, Nu\Nu male mice, from Harlan (Italy), were maintained in cages with paper filter cover, food and bedding sterilized and water acidified. 2.5×10^6 DU145 prostate carcinoma cells (from the American Type Culture Collection) were injected subcutaneously in athymic mice. […] The treatment started at day 9 after cell injection, when tumors were palpable with a tumor weight mean for all the groups of 0.15 g.
Bevacizumab was administered intraperitoneally in a volume of 10 ml/kg at the dose of 20 mg/kg on days 9, 13, 17 from the days of tumor cells injection. […] Tumor growth and body weight were measured every 3 days. Tumor growth was assessed by caliper. […] This delay (T-C value) was defined as the difference of time (in days) required for the treatment group (T) and the control group(C) tumors to reach a predetermined size (1 g). Toxicity was evaluated on the basis of body weight reduction.

[3] = test system: HL-60 human acute myeloid leukaemia cells; settings: HL-60 model; previously demonstrated; cited from earlier work
[4] = test system: DU145 prostate carcinoma cells; settings: previously demonstrated (The Prostate 36: 1-10, 1998); cited from earlier work
[5] = Bortezomib 1 mg/kg iv days 12, 16, 20, 24 (combination: + Compound 1 15 mg/kg ip)
[6] = Compound 1 15 mg/kg ip BID, Bortezomib 0.5 mg/kg iv days 12, 16, 20, 24

| Molecule | Time to reach 1 g [1, 5] | Time to reach 1 g [1, 6] | T-C [1, 5] | T-C [1, 6] | Time to reach 1 g [2] | T-C [2] | effect on growth of the tumor model in vivo [3] | Toxicity ([2]; evaluated on body weight reduction) | effect on angiogenesis and growth of the tumor model in vivo [4] |
| --- | --- | --- | --- | --- | --- | --- | --- | --- | --- |
| CC(C)C[C@H](NC(=O)[C@H](Cc1ccccc1)NC(=O)c1cnccn1)B(O)O [Bortezomib] | 23.8 days | 19 days | 8.2 days | 3.4 days |  |  |  |  |  |
| CO[C@@H](C(=O)N1Cc2[nH]nc(NC(=O)c3ccc(N4CCN(C)CC4)cc3)c2C1)c1ccccc1 [Compound 1, N-{5-[(2R)-2-methoxy-2-phenylethanoyl]-1,4,5,6-tetrahydropyrrolo[3,4-c]pyrazol-3-yl}-4-(4-methylpiperazin-1-yl)benzamide] |  | 24.7 days |  | 9.1 days | 23.9 days | 8.5 days | inhibits growth of the model in vivo |  |  |
| Bevacizumab: antibody to vascular endothelial growth factor; marketed as Avastin |  |  |  |  | 18.5 days | 3.1 days |  | 0/8 | inhibits angiogenesis and growth of the model in vivo |
